Results as given in patent US12478594B2, “Methods of treatment of kidney injury associated with infection or trauma” (University of Pittsburgh—Of the Commonwealth System of …, priority 2019, dated 2025).

Key:
[1] = system: septic mice (cecal ligation and puncture); test: CLP sepsis-associated AKI model: sepsis survival to day 14; assay type: in vivo, Balb/c mice; details: 50 mg/kg/day i.p. 7 days
From the text: (§1) Balb/c mice (20-24 weeks old, male and female, Charles River Labs) were used. Mice were subjected to cecal ligation and puncture surgery (CLP) in accordance with methods reported by Rittirsch et al. (Rittirsch D, Huber-Lang M S, Flierd M A, Ward P A: Immunodesign of experimental sepsis by cecal ligation and puncture. Nature protocols 2009, 4(1):31-36). Specifically, Sepsis was induced by ligating 1 cm length of the cecum from the apex and two punctures with a 25-Gauge needle. Animals in the sham group had only laparotomy without any cecal punctures. Post-surgery treatment included 40 mL/kg Ringer's solution after surgery, and ceftriaxone (25 mg/kg), metronidazole (12.5 mg/kg), and buprenorphine (0.05 mg/kg), every 12 hours administered intraperitoneally (i.p.) for 3 days. Septic animals were randomly divided into four groups to receive a seven-day UPHD186 (50 mg/kg/day, i.p.) or vehicle (20% Cyclodextrin-2% DMSO in PBS, i.p.) treatment, starting from 48 hours or 96 hours post-CLP. […]
Graph and statistical analyses were performed using GraphPad Prism 8 (GraphPad Software). […] Tukey's test was used to determine significance of differences among multiple groups and t test between two groups; survival rates were analyzed using log-rank Mantel-Cox test. […]

[2] = system: hemin treated kidney organoids; test: Hemin-induced injury of kidney organoids: collagen hybridizing peptide (CHP) staining; assay type: cell-based, human; details: 25 μM hemin two days, then 10 days with 1 μM, 3 μM, and 9 μM compound
Description: A simple bioreactor-based method for growing renal organoids for long periods of time is provided, resulting in tissue with a high degree of maturation. Hemin-induced acute kidney injury produced by the oxidation of the heme of hemoglobin and myoglobin, causing oxidative stress and inflammation. […] These observations indicate that the kidney organoid model of AKI provides a valuable new platform to validate novel compounds in the setting of human AKI.
Organoids were prepared essentially as described in Przepiorski A, Sander V, Tran T, Hollywood J A, Sorrenson B, Shih J H, Wolvetang E J, McMahon A P, Holm™ and Davidson A J. A Simple Bioreactor-Based Method to Generate Kidney Organoids from Pluripotent Stem Cells. Stem Cell Reports. 2018; 11:470-484. As shown in FIG. 8 (A), induced pluripotent stem cells (iPSCs) were cultured for three 3 days in with 8 μM of the Wnt agonist CHIR-99021 (CHIR, e.g., 6-[[2-[[4-(2,4-dichlorophenyl)-5-(5-methyl-1H-imidazol-2-yl)-2-pyrimidinyl]amino]ethyl] amino]-3-pyridinecarbonitrile) in BPEL (BSA poly(vinyl alcohol) essential lipids)), and were then cultured for an additional 11 days in DMEM with Knockout™ Serum Replacement (KOSR). At 14 days, DMEM F12 medium containing 25 μM Hemin (Sigma, H9039) is applied for two days, followed by 10 days with 1 μM, 3 μM, and 9 μM UPHD186 in DMEM with 10% KOSR. UPHD25 was evaluated in the same manner. […]

[3] = CLP sepsis-associated AKI model: circulating creatinine; assay type: in vivo, Balb/c mice; details: early and delayed treatment regimens
From the text: as §1, with “post-CLP. To determine treatment efficacy, time-serial blood samples (approx. 10 μL) were collected through animals' saphenous vein on the days before/after the treatment session. All mice were followed for survival and sacrificed at the 3rd day post-treatment or the endpoint day 14 to collect kidneys and blood samples.” for “post-CLP.”

[4] = system: IGFBP7; test: CLP sepsis-associated AKI model: renal IGFBP7 expression, day 14; assay type: in vivo, Balb/c mice
From the text: (§2) Balb/c mice (20-24 weeks old, male and female, Charles River Labs) were used. Mice were subjected to cecal ligation and puncture surgery (CLP) in accordance with methods reported by Rittirsch et al. (Rittirsch D, Huber-Lang M S, Flierd M A, Ward P A: Immunodesign of experimental sepsis by cecal ligation and puncture. Nature protocols 2009, 4(1):31-36). Specifically, Sepsis was induced by ligating 1 cm length of the cecum from the apex and two punctures with a 25-Gauge needle. Animals in the sham group had only laparotomy without any cecal punctures. Post-surgery treatment included 40 mL/kg Ringer's solution after surgery, and ceftriaxone (25 mg/kg), metronidazole (12.5 mg/kg), and buprenorphine (0.05 mg/kg), every 12 hours administered intraperitoneally (i.p.) for 3 days. Septic animals were randomly divided into four groups to receive a seven-day UPHD186 (50 mg/kg/day, i.p.) or vehicle (20% Cyclodextrin-2% DMSO in PBS, i.p.) treatment, starting from 48 hours or 96 hours post-CLP. To determine treatment efficacy, time-serial blood samples (approx. 10 μL) were collected through animals' saphenous vein on the days before/after the treatment session. All mice were followed for survival and sacrificed at the 3rd day post-treatment or the endpoint day 14 to collect kidneys and blood samples.
The left kidney was flushed with 10 mL ice-cold PBS, 10 mL 10% formalin through the left ventricle immediately after euthanasia, and the kidney was collected. For immunofluorescence staining, half of the kidney was fixed in 10% formalin for 2 h on ice, incubated in 30% (vol/vol) sucrose at 4° C. overnight, snap frozen in OCT (Sakura FineTek), and cut into 7-μm sections. […] Semiquantitative renal histology injury scoring was assessed by an investigator blinded to group assignment and the percentage of fibrosis per area was quantified using ImageJ (https://imagej.nih.gov/ij/; National Institutes of Health).
Renal expression/location of the kidney stress marker insulin-like growth factor-binding protein 7 (IGFBP7) was measured at Day-14 kidneys. […]

[5] = system: IL6; test: CLP sepsis-associated AKI model: circulating cytokine IL6 (ELISA); assay type: in vivo, Balb/c mice; details: early and delayed treatment regimens
From the text: as §2, with “samples. […]” for “samples.”

[6] = system: F4/80+ mononuclear cells in the kidneys; test: CLP sepsis-associated AKI model: kidney monocytes and their phenotype (immunofluorescence), day 3 post-treatment; assay type: in vivo, Balb/c mice; details: for F4/80+ cell numbers in the kidneys: 50 mg/kg/day i.p.
From the text: as §2
(§3) The left kidney was flushed with 10 mL ice-cold PBS, 10 mL 10% formalin through the left ventricle immediately after euthanasia, and the kidney was collected. For immunofluorescence staining, half of the kidney was fixed in 10% formalin for 2 h on ice, incubated in 30% (vol/vol) sucrose at 4° C. overnight, snap frozen in OCT (Sakura FineTek), and cut into 7-μm sections. Sections were treated with heated citrate (Antigen Unmasking Solution, Vector Laboratories), blocked in 10% (vol/vol) normal goat serum (Vector Laboratories) in 0.3M glycine-PBST for 1 h RT, incubated with primary antibodies at 4° C. overnight, and then corresponding secondary antibodies (Jackson ImmunoResearch) in PBS containing 10% of the blocking solution for 1 h RT. Stained sections were mounted in mounting Medium with DAPI (Vectashield H-1000, Vector Laboratories), and stored at −20° C. until observed under confocal microscopy (Fluoview 1000, Olympus). Three washes with PBST were performed between each step. The primary antibodies were: goat anti-ICAM (R&D Systems), rabbit anti-Col1 (Novus Biologicals), rabbit anti-fibronectin (Abcam), rabbit anti-vimentin (Abcam), rat anti-F4/80 (Abcam), rabbit anti-iNOS (Abcam), and phalloidin (Thermo Fisher Scientific) was used for staining of the brush-boarder. For immunohistochemistry analysis, the infused kidney was fixed in 10% formalin at 4° C. overnight, embedded in paraffin, and cut into 5-μm sections. Hematoxylin & eosin and Masson's trichrome stain were performed. Semiquantitative renal histology injury scoring was assessed by an investigator blinded to group assignment and the percentage of fibrosis per area was quantified using ImageJ (https://imagej.nih.gov/ij/; National Institutes of Health).
Kidney samples collected at day 3 post-treatment were examined for presence numbers of monocytes in the kidney and their phenotypes (monocytes: F4/80^+, M1: F4/80^+iNOS^+, M2: F4/80^+MR^+).

[7] = system: renal fibrosis and histology injury; test: CLP sepsis-associated AKI model: renal histology (Masson's trichrome, hematoxylin & eosin), day 14; assay type: in vivo, Balb/c mice
From the text: as §2
as §3, with “The primary antibodies were: goat anti-ICAM (R&D Systems), rabbit anti-Col1 (Novus Biologicals), rabbit anti-fibronectin (Abcam), rabbit anti-vimentin (Abcam), rat anti-F4/80 (Abcam), rabbit anti-iNOS (Abcam), and phalloidin (Thermo Fisher Scientific) was used for staining of the brush-boarder. For immunohistochemistry analysis, the infused kidney was fixed in 10% formalin at 4° C. overnight, embedded in paraffin, and cut into 5-μm sections. Hematoxylin & eosin and Masson's trichrome stain were performed.” left out, “Health). […]” for “Health).”

[8] = system: renal mRNA of inflammation, kidney injury, matrix remodeling, cell cycle, proliferation and fibrosis genes; test: CLP sepsis-associated AKI model: renal mRNA expression (quantitative PCR); assay type: in vivo, Balb/c mice
From the text: as §2
Total tissue RNA was isolated using TRIzol™ reagent (Life Technologies), DNase kit (Invitrogen), and converted into complementary DNA with High-Capacity cDNA Reverse Transcription Kits (Applied Biosystems). Quantitative polymerase chain reaction was performed on a Mx3000PTM system (Agilent Technologies) using primers (Table 1) and SYBR® Select Master Mix (2×) (Applied Biosystems). The expression of each target gene was assayed in duplicate and presented as fold change normalized by that of the endogenous control gene, gapdh expression.
Kidney samples were examined at mRNA levels for genes controlling inflammation (nfκb, ccl20, traf1, traf2, icam), kidney injury (kim1), and matrix remodeling markers (lox, loxl1). Septic animals had higher levels of gene expression compared to sham controls (FIG. 4). […] (FIG. 3D).
Kidney samples on day 14 (following CLP) were examined for mRNA levels for treatment effects on cell cycle regulation (cdkn1a), proliferation (ki67), and pro-fibrosis genes (plod2, fsp1, col1a1). Septic animals had higher levels of fsp1 and col1a1 expressions compared to sham controls (FIG. 7). Early treatment with UPHD186 further increased fsp1 (fold-increase, 3.3±1.3 vs. corresponding CLP+vehicle controls 2.2±1.1, P<0.05), whereas delayed treatment promoted ki67 and inhibited col1a1 expression (fold-increase, ki67: 1.6±0.7 vs. corresponding controls 1.0±0.5, P<0.01; col1a1, 2.2±0.9 vs. 3.7±2.4, P<0.05) (FIG. 5C). Thus, pro-fibrotic gene expression was increased in the recovery phase and early treatment further aggravated these changes; whereas delayed treatment promoted proliferation and attenuated fibrosis.

Question: What does the source list for `O=C(CCCSc1ccccc1)Nc1ccccc1O` [UPHD186, N-(2-hydroxyphenyl)-4-(phenylsulfanyl)butanamide]?
Answer: survival rate by day 14 ([1]; delayed treatment (96 h), vehicle 39%, P<0.01): 79%; survival rate by day 14 ([1]; early treatment (48 h), vehicle 54%, P=0.32): 69%; collagen (CHP staining), fibrosis [2]: reduced; circulating creatinine, treatment effect [3]: neither creatinine (FIG. 5B) nor cytokine IL6 (FIG. 6) were affected; overall IGFBP7 renal expression, effect ([4]; delayed treatment, day 14): no such effect; secretory pattern of IGFBP7, effect ([4]; early and delayed treatment regimens, day 14 (data not shown)): neither treatment regimens changed the secretory pattern of IGFBP7; overall IGFBP7 renal expression ([4]; early treatment, day 14, CLP 396.9±109.0): 674.1±190.5; circulating cytokine IL6, treatment effect [5]: neither creatinine (FIG. 5B) nor cytokine IL6 (FIG. 6) were affected; iNOS expression intensities (M1 marker) ([6]; delayed treatment (96 h post-CLP), CLP vehicle 3.1±1.4): 1.4±0.3; F4/80+ cell numbers in the kidneys ([6]; delayed treatment (from 96 h post-CLP), CLP vehicle 52.4±32.9): 40.6±24.7 cells/field; MR expression (M2 marker), treatment effect ([6]; early and delayed treatment groups): no treatment effects were observed; iNOS expression intensities (M1 marker) ([6]; early treatment (48 h post-CLP), CLP vehicle 1.2±0.7): 2.7±0.3; F4/80+ cell numbers in the kidneys ([6]; early treatment (from 48 h post-CLP), CLP vehicle 41.2±26.1): 15.7±7.7 cells/field; histology injury score ([7]; delayed treatment, vehicle 2.1±1.0, P=0.13): 1.4±1.0; collagen volume fraction ([7]; delayed treatment, vehicle 26.2±7.6, P=0.08): 21.2±4.8%; histology injury score ([7]; early treatment, CLP vehicle 1.7±0.9): 2.6±1.3; collagen volume fraction ([7]; early treatment, CLP vehicle 28.4±4.3): 27.6±4.3%; inflammation, kidney injury and matrix remodeling marker mRNA (nfκb, ccl20, traf1, traf2, icam, kim1, lox, loxl1), effect ([8]; delayed treatment, day 3 post-treatment, compared to CLP controls): no effect on any marker expressions; ki67 renal mRNA ([8]; delayed treatment, day 14 after CLP, controls 1.0±0.5): 1.6±0.7 fold-increase; col1a1 renal mRNA ([8]; delayed treatment, day 14 after CLP, controls 3.7±2.4): 2.2±0.9 fold-increase; loxl1 renal mRNA ([8]; early treatment, day 3 post-treatment, CLP 10.5±5.7): 5.0±2.3 fold-increase; icam1 renal mRNA ([8]; early treatment, day 3 post-treatment, CLP 25.3±4.1): 9.1±2.3 fold-increase; traf2 renal mRNA ([8]; early treatment, day 3 post-treatment, CLP 32.5±6.9): 12.2±3.0 fold-increase; traf1 renal mRNA ([8]; early treatment, day 3 post-treatment, CLP 51.5±9.1): 17.1±3.6 fold-increase; cdkn1a renal mRNA, effect ([8]; early treatment, day 14 (FIG. 5C)): increased cdkn1a; fsp1 renal mRNA ([8]; early treatment, day 14 after CLP, CLP+vehicle 2.2±1.1): 3.3±1.3 fold-increase

Question: With `COC(=O)CCCSc1ccccc1` [UPHD25, methyl 4-(phenylsulfanyl)butanoate] as the compound, how does the “collagen (CHP staining), fibrosis” value [2] read?
Answer: reduction of collagen
